According to PubChem BioAssay (NCI):
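Where inhibition never reached the appropriate level, the endpoint shown equals the highest concentration tested. Otherwise, values were interpolated linearly from a five-concentration, 48-hour dose response in 96-well plates. GI50 is the concentration that inhibits growth by half. TGI marks complete inhibition of growth.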

Legend:
Experiment in all cases: inhibition of tumour cell growth, NCI panel, 48 h
A498 renal = system: A498 renal
OVCAR-4 ovarian = system: OVCAR-4 ovarian
786-0 renal = system: 786-0 renal
HL-60(TB) leukemia = system: HL-60(TB) leukemia
LOX IMVI melanoma = system: LOX IMVI melanoma
HS 578T breast = system: HS 578T breast
SW-620 colon = system: SW-620 colon
BT-549 breast = system: BT-549 breast
MALME-3M melanoma = system: MALME-3M melanoma
ACHN renal = system: ACHN renal
K-562 leukemia = system: K-562 leukemia
NCI-H23 lung = system: NCI-H23 lung
OVCAR-3 ovarian = system: OVCAR-3 ovarian
UACC-62 melanoma = system: UACC-62 melanoma
M14 melanoma = system: M14 melanoma
U251 CNS = system: U251 CNS
SK-MEL-28 melanoma = system: SK-MEL-28 melanoma
A549 NSCLC = system: A549 NSCLC
HOP-62 NSCLC = system: HOP-62 NSCLC
OVCAR-5 ovarian = system: OVCAR-5 ovarian
CAKI-1 renal = system: CAKI-1 renal
HCT-15 colon = system: HCT-15 colon
NCI-H460 lung = system: NCI-H460 lung
SF-295 CNS = system: SF-295 CNS
UACC-257 melanoma = system: UACC-257 melanoma
MOLT-4 leukemia = system: MOLT-4 leukemia
HCT-116 colon = system: HCT-116 colon
NCI-H522 lung = system: NCI-H522 lung
HT29 colon = system: HT29 colon
SK-OV-3 ovarian = system: SK-OV-3 ovarian
COLO 205 colon = system: COLO 205 colon
TK-10 renal = system: TK-10 renal
SR leukemia = system: SR leukemia
NCI-H226 lung = system: NCI-H226 lung
NCI/ADR-RES ovarian = system: NCI/ADR-RES ovarian
MCF7 breast = system: MCF7 breast
OVCAR-8 ovarian = system: OVCAR-8 ovarian
IGROV1 ovarian = system: IGROV1 ovarian
RXF 393 renal = system: RXF 393 renal
SNB-75 CNS = system: SNB-75 CNS
HCC-2998 colon = system: HCC-2998 colon
CCRF-CEM leukemia = system: CCRF-CEM leukemia
MDA-MB-435 = system: MDA-MB-435
T-47D breast = system: T-47D breast
SK-MEL-5 melanoma = system: SK-MEL-5 melanoma
SNB-19 CNS = system: SNB-19 CNS
SK-MEL-2 melanoma = system: SK-MEL-2 melanoma
PC-3 prostate = system: PC-3 prostate
RPMI-8226 leukemia = system: RPMI-8226 leukemia
UO-31 renal = system: UO-31 renal
MDA-MB-231 breast = system: MDA-MB-231 breast
KM12 colon = system: KM12 colon
SF-268 CNS = system: SF-268 CNS
HOP-92 NSCLC = system: HOP-92 NSCLC
SN12C renal = system: SN12C renal
DU-145 prostate = system: DU-145 prostate
EKVX NSCLC = system: EKVX NSCLC

Structure (SMILES): N/C(=C\C(=O)n1nc(-c2ccccc2)cc1N)c1ccccc1
- GI50 (A498 renal): 2.77 µM
- TGI (A498 renal): 12.5 µM
- GI50 (OVCAR-4 ovarian): 12.5 µM
- TGI (OVCAR-4 ovarian): 47.1 µM
- GI50 (786-0 renal): 7.72 µM
- TGI (786-0 renal): 44.3 µM
- GI50 (HL-60(TB) leukemia): 1.88 µM
- TGI (HL-60(TB) leukemia): 5.99 µM
- GI50 (LOX IMVI melanoma): 6.54 µM
- TGI (LOX IMVI melanoma): 31.4 µM
- GI50 (HS 578T breast): 2.41 µM
- TGI (HS 578T breast): 13 µM
- GI50 (SW-620 colon): 3.59 µM
- TGI (SW-620 colon): 17.2 µM
- GI50 (BT-549 breast): 2.56 µM
- TGI (BT-549 breast): 27.4 µM
- GI50 (MALME-3M melanoma): 7.51 µM
- TGI (MALME-3M melanoma): 25.2 µM
- GI50 (ACHN renal): 8.29 µM
- TGI (ACHN renal): > 100 µM
- GI50 (K-562 leukemia): 2.06 µM
- TGI (K-562 leukemia): 24.4 µM
- GI50 (NCI-H23 lung): 4.59 µM
- TGI (NCI-H23 lung): 22.8 µM
- GI50 (OVCAR-3 ovarian): 2.28 µM
- TGI (OVCAR-3 ovarian): 6.46 µM
- GI50 (UACC-62 melanoma): 3.09 µM
- TGI (UACC-62 melanoma): 19.2 µM
- GI50 (M14 melanoma): 3.13 µM
- TGI (M14 melanoma): 14.7 µM
- GI50 (U251 CNS): 4.04 µM
- TGI (U251 CNS): 19.2 µM
- GI50 (SK-MEL-28 melanoma): 5.84 µM
- TGI (SK-MEL-28 melanoma): 32.3 µM
- GI50 (A549 NSCLC): 7.29 µM
- TGI (A549 NSCLC): 81.3 µM
- GI50 (HOP-62 NSCLC): 8.3 µM
- TGI (HOP-62 NSCLC): 32.4 µM
- GI50 (OVCAR-5 ovarian): 19.2 µM
- TGI (OVCAR-5 ovarian): 61.6 µM
- GI50 (CAKI-1 renal): 5.96 µM
- TGI (CAKI-1 renal): 80.4 µM
- GI50 (HCT-15 colon): 4.09 µM
- TGI (HCT-15 colon): 74.6 µM
- GI50 (NCI-H460 lung): 3.55 µM
- TGI (NCI-H460 lung): 15.8 µM
- GI50 (SF-295 CNS): 3.48 µM
- TGI (SF-295 CNS): 31.6 µM
- GI50 (UACC-257 melanoma): 17.4 µM
- TGI (UACC-257 melanoma): 70.3 µM
- GI50 (MOLT-4 leukemia): 3.72 µM
- TGI (MOLT-4 leukemia): 17.8 µM
- GI50 (HCT-116 colon): 3.77 µM
- TGI (HCT-116 colon): 16 µM
- GI50 (NCI-H522 lung): 5.24 µM
- TGI (NCI-H522 lung): 27.9 µM
- GI50 (HT29 colon): 3.46 µM
- TGI (HT29 colon): 13 µM
- GI50 (SK-OV-3 ovarian): 5.31 µM
- TGI (SK-OV-3 ovarian): 39 µM
- GI50 (COLO 205 colon): 3.6 µM
- TGI (COLO 205 colon): 14.7 µM
- GI50 (TK-10 renal): 7.72 µM
- TGI (TK-10 renal): > 100 µM
- GI50 (SR leukemia): 1.59 µM
- TGI (SR leukemia): 7.38 µM
- GI50 (NCI-H226 lung): 11.2 µM
- TGI (NCI-H226 lung): 47.5 µM
- GI50 (NCI/ADR-RES ovarian): 3.2 µM
- TGI (NCI/ADR-RES ovarian): > 100 µM
- GI50 (MCF7 breast): 2.86 µM
- TGI (MCF7 breast): 21.1 µM
- GI50 (OVCAR-8 ovarian): 13.8 µM
- TGI (OVCAR-8 ovarian): > 100 µM
- GI50 (IGROV1 ovarian): 6.38 µM
- TGI (IGROV1 ovarian): 61.7 µM
- GI50 (RXF 393 renal): 13.3 µM
- TGI (RXF 393 renal): 44.8 µM
- GI50 (SNB-75 CNS): 3.72 µM
- TGI (SNB-75 CNS): 52.1 µM
- GI50 (HCC-2998 colon): 11.8 µM
- TGI (HCC-2998 colon): 34.2 µM
- GI50 (CCRF-CEM leukemia): 1.34 µM
- TGI (CCRF-CEM leukemia): 13.5 µM
- GI50 (MDA-MB-435): 1.19 µM
- TGI (MDA-MB-435): 3.56 µM
- GI50 (T-47D breast): 3.27 µM
- TGI (T-47D breast): 26.3 µM
- GI50 (SK-MEL-5 melanoma): 3.01 µM
- TGI (SK-MEL-5 melanoma): 12.1 µM
- GI50 (SNB-19 CNS): 14.9 µM
- TGI (SNB-19 CNS): 81.2 µM
- GI50 (SK-MEL-2 melanoma): 4.96 µM
- TGI (SK-MEL-2 melanoma): 26.2 µM
- GI50 (PC-3 prostate): 4.35 µM
- TGI (PC-3 prostate): 28.9 µM
- GI50 (RPMI-8226 leukemia): 2.75 µM
- TGI (RPMI-8226 leukemia): 16.2 µM
- GI50 (UO-31 renal): 3.71 µM
- TGI (UO-31 renal): 65.3 µM
- GI50 (MDA-MB-231 breast): 11.3 µM
- TGI (MDA-MB-231 breast): 65.2 µM
- GI50 (KM12 colon): 2.9 µM
- TGI (KM12 colon): 14.1 µM
- GI50 (SF-268 CNS): 5.14 µM
- TGI (SF-268 CNS): 31.7 µM
- GI50 (HOP-92 NSCLC): 4.59 µM
- TGI (HOP-92 NSCLC): 31.8 µM
- GI50 (SN12C renal): 7.96 µM
- TGI (SN12C renal): 24.3 µM
- GI50 (DU-145 prostate): 5.39 µM
- TGI (DU-145 prostate): 27.7 µM
- GI50 (EKVX NSCLC): 5.57 µM
- TGI (EKVX NSCLC): 35.9 µM
